The record followed here is ChEMBL document CHEMBL1123763, “Resolution of (+/-)-2-tetradecyloxiranecarboxylic acid. Absolute configuration and chiral synthesis of the hypoglycemic R enantiomer and biological activity of enantiomers” (J Med Chem, 1987).

The target in test [1] is T1, Carnitine O-palmitoyltransferase 1, liver isoform (Rattus norvegicus, UniProt P32198).
T1 sequence (P32198 whole entry): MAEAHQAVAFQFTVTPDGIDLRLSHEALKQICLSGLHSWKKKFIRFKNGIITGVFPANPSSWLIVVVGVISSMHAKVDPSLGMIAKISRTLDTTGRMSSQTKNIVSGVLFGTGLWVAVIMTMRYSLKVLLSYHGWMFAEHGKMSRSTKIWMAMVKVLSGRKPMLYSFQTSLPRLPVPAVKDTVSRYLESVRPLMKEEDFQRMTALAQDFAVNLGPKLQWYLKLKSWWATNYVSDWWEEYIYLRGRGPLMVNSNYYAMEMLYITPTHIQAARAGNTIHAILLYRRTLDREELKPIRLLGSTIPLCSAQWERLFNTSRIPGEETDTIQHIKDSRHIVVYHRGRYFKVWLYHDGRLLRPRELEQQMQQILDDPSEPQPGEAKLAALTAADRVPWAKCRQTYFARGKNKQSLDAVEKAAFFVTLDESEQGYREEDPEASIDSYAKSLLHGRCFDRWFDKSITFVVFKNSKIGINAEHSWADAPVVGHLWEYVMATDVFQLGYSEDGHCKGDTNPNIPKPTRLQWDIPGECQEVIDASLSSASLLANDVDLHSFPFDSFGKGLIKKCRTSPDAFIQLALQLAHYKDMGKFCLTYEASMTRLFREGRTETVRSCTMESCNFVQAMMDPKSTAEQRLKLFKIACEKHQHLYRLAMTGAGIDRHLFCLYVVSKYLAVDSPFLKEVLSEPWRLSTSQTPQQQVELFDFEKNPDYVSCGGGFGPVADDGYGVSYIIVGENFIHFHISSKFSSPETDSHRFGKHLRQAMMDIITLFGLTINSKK
Briefly: Inhibition of carnitine palmitoyl transferase (CPT), assessed with isolated rat liver mitochondria; Inactive.

The target of test [2] is T1, Carnitine O-palmitoyltransferase 1, liver isoform. Briefly: Inhibition of carnitine palmitoyl transferase (CPT), assessed with isolated rat liver mitochondria.
The subject of test [3] is Rattus norvegicus. Put plainly: Rat glucose tolerance in vivo expressed as minimum effective dose (MED), it is the lowest dose giving a statistically significant (p<0.05) lowering at any time point. The test is classed as functional. As to conditions: read-out: MED.
Test [4] concerns Rattus norvegicus. Put plainly: Rat glucose tolerance test was determined in vivo at 75 mg/kg perorally. Format: functional. As to conditions: route oral.
The species named for test [5] is Rattus norvegicus. Briefly: In vitro inhibition of [1-14C]palmitate oxidation in rat hemidiaphragms. The test is classed as functional.
Test [6] relates to Rattus norvegicus. Put plainly: Rat glucose tolerance test was determined in vivo at 100 mg/kg perorally. The test is classed as functional. The following applies: route oral.
The species named for test [7] is Rattus norvegicus. Put plainly: In vitro inhibition of [1-14C]palmitate oxidation in rat hemidiaphragms; Inactive. The test is classed as functional.
In test [8] the test system is Rattus norvegicus. Put plainly: Rat glucose tolerance in vivo expressed as minimum effective dose (MED), it is the lowest dose giving a statistically significant (p<0.05) lowering at any time point; Inactive. The test is classed as functional, organism-based.
Test [9] has as its system Rattus norvegicus. Briefly: Rat glucose tolerance test was determined in vivo at 100 mg/kg perorally; Inactive. Format: functional, organism-based. More on the design: dose 100 mg/kg.
For test [10], the system named is Rattus norvegicus. Briefly: Rat glucose tolerance test was determined in vivo at 10 mg/kg perorally. Format: functional. As to conditions: route oral.

Activity calls are given as the source filed them. No cut-off for these calls is given here.

In general, IC50 refers to the concentration at which inhibition is half-maximal. Read a high IC50 as weaker potency in that assay. Turning to `CCCCCCCCCCCCCC[C@@]1(C(=O)SCCNC(=O)CCNC(=O)C(O)C(C)(C)COP(=O)(O)OP(=O)(O)OC[C@H]2O[C@@H](n3cnc4c(N)ncnc43)[C@H](O)[C@@H]2OP(=O)(O)O)CO1` (some centres undefined), in test [1], the concentration for half-maximal inhibition (IC50) result is on record as “Not Active”.
In test [2], `CCCCCCCCCCCCCCC1(C(=O)SCCNC(=O)CCNC(=O)C(O)C(C)(C)COP(=O)(O)OP(=O)(O)OC[C@H]2O[C@@H](n3cnc4c(N)ncnc43)[C@H](O)[C@@H]2OP(=O)(O)O)CO1` (mixture of isomers) gave an IC50 of 30 nM.
`CCCCCCCCCCCCCCC1(C(=O)OC)CO1` (racemic) [METHYL PALMOXIRATE]: the minimal effective dose in the test on Rattus norvegicus [3] is 2 mg/kg. The compound further had a Lowering with Rattus norvegicus [4] of 45%. Also, the IC50 in test [2] was determined as 90 nM.
The compound `CCCCCCCCCCCCCC[C@]1(C(=O)SCCNC(=O)CCNC(=O)C(O)C(C)(C)COP(=O)(O)OP(=O)(O)OC[C@H]2O[C@@H](n3cnc4c(N)ncnc43)[C@H](O)[C@@H]2OP(=O)(O)O)CO1` (some centres undefined) registered an IC50 in [2] of 20 nM.
Compound `CCCCCCCCCCCCCC[C@]1(C(=O)OC)CO1` displayed an IC50 in test [2] of 40 nM.
As for `CCCCCCCCCCCCCCC1(C(=O)O)CO1` (racemic) [PALMOXIRATE], the results for the IC50 (in the test filed under Rattus norvegicus [5]; in test [2]) were 2200 nM and 40 nM, respectively. Besides, the minimal effective dose in the test on Rattus norvegicus [3] came out at 5 mg/kg. Also, in the test with Rattus norvegicus [6], the Lowering came out at 53%.
In the case of `CCCCCCCCCCCCCC[C@@]1(C(=O)O)CO1`, the IC50 result (in the test listed under Rattus norvegicus [7]; in [1]) was “Not Active” in each case. Further, in the test with Rattus norvegicus [8], the MED result is “inactive”. In addition, in the test on Rattus norvegicus [9], the Lowering result is “inactive”.
As to `CCCCCCCCCCCCCC[C@]1(C(=O)O)CO1`, the IC50 in the test listed under Rattus norvegicus [5] was found to be 1200 nM; in [2] it was 30 nM. For the same compound, the minimal effective dose in the test on Rattus norvegicus [3] stood at 5 mg/kg. For the same compound, the Lowering in the test with Rattus norvegicus [10] worked out at 25%.
